Assay: Solubility in water
Conditions: compared with TOTAPOL

## bis-TEMPO-bis-Ketal [bTbK]
  solubility in water: less good solubility in water

From patent US9035054B2, “Dinitroxide-type biradical compounds optimized for dynamic nuclear polarization (DNP)” (Universite D'Aix-Marseille, priority 2009, dated 2015)
